The values below come from patent US9353072B2, “Antimicrobial substituted thiazoles and methods of use” (Purdue Research Foundation, priority 2012, dated 2016).

As a reminder, the MBC is the lowest tested concentration that kills the bacteria rather than only halting them.

In brackets after ≈: the same amount, converted by molar mass. Read-outs that look alike come from different tables or passages of the source.

Experiment [1] relates to MRSA ATCC 700699 (NRS1, VISA). As to the kind of experiment: MIC/MBC broth microdilution, NRS1 (ATCC 700699). The class given is cell-based. To be noted: Staphylococcus aureus. On the procedure:
(§1) Determination of minimum inhibitory concentration (MIC). The MICs of the lead thiazole compound (compound 1a) and nine derivatives tested against all 18 MRSA strains were determined, in triplicate samples, using the broth microdilution method in accordance with the recommendations contained in the CLSI guidelines.
On the technique in general: In broth dilution the organism is exposed to a series of concentrations in liquid medium.

For experiment [2], the system named is VISA HIP07256 (NRS19). Put plainly: MIC/MBC broth microdilution, NRS19 (VISA HIP07256). The class given is cell-based. To be noted: Staphylococcus aureus. The method, then: as §1
Experiment [3] deals with MRSA USA400 (NRS123). As to the kind of experiment: MIC/MBC broth microdilution, NRS123 (USA400). The class given is cell-based. To be noted: Staphylococcus aureus. The method, then: as §1
The test system of experiment [4] is MRSA NRS384 (USA300). As to the kind of experiment: MIC/MBC broth microdilution, NRS384 (USA300). The format is cell-based. To be noted: Staphylococcus aureus. The method, then:
as §1

For experiment [5], the system named is MRSA USA500 (NRS385). As to the kind of experiment: MIC/MBC broth microdilution, NRS385 (USA500). The class given is cell-based. To be noted: Staphylococcus aureus. The method, then: as §1
Experiment [6] has as its system MRSA ATCC 43300. As to the kind of experiment: MIC/MBC broth microdilution, MRSA ATCC 43300. The format is cell-based, Staphylococcus aureus. To be noted: Staphylococcus aureus. On the procedure:
as §1

The subject of experiment [7] is VISA LIM 3 (NRS37). As to the kind of experiment: MIC/MBC broth microdilution, NRS37 (VISA LIM 3). The class given is cell-based. To be noted: Staphylococcus aureus, Table 8, NRS37 (VISA); for MIC: read-out: MIC. On the procedure:
as §1

The subject of experiment [8] is NRS107. Put plainly: MIC/MBC broth microdilution, NRS107. To be noted: Staphylococcus aureus; for MIC: Table 8, read-out: MIC. The format is cell-based. On the procedure: as §1
Experiment [9] has as its system NRS119. Put plainly: MIC/MBC broth microdilution, NRS119. The class given is cell-based. To be noted: Staphylococcus aureus, Table 8, NRS119; for MIC: read-out: MIC. The method, then: as §1
In experiment [10] the test system is NRS194. Put plainly: MIC/MBC broth microdilution, NRS194. The class given is cell-based. To be noted: Staphylococcus aureus; for MIC: Table 8, read-out: MIC. On the procedure:
as §1

[11] abbreviates: Table 4, MRSA ATCC 43300, 64 μM down to 0.5 μM, 37° C., 19 hours, read-out: Minimum Inhibitory Concentration.
Where [12] appears, read: Table 5, MRSA NRS384 (USA300), 128 μM down to 1.0 μM, 37° C., 19 hours, read-out: Minimum Inhibitory Concentration.
Where [13] appears, read: Table 6, MRSA ATCC 43300, 128 μM down to 1.0 μM, 20 hours, read-out: MIC.
The mark [14] stands for this setting: Table 8, ATCC 43300, read-out: MIC.
Setting [15] is: Table 8, NRS1 (VISA), triplicates, 20 hours, read-out: MIC.
The mark [16] stands for this setting: Table 8, NRS19 (VISA), read-out: MIC.

Consider `CCCCCCCCCc1ccc(-c2nc(C)c(/C(C)=N/NC(=N)N)s2)cc1` [Compound 1f], for which the MIC in experiment [1] (Table 2, MRSA ATCC 700699, read-out: Minimum Inhibitory Concentration) was found to be 1.1 µg/mL; in experiment [2] (Table 2, VISA HIP07256, read-out: Minimum Inhibitory Concentration) it was 2.2 µg/mL; in [3] (Table 2, MRSA USA400, read-out: Minimum Inhibitory Concentration) it was 4.4 µg/mL; in experiment [4] (Table 2, MRSA USA300, read-out: Minimum Inhibitory Concentration) it was 2.2 µg/mL; in experiment [5] (Table 2, MRSA USA500, read-out: Minimum Inhibitory Concentration) it was 4.4 µg/mL.

Consider `CCCCc1ccc(-c2nc(C)c(C(N)=O)s2)cc1` [Compound R6, 2-(4-butylphenyl)-4-methylthiazole-5-carboxamide], for which the MIC in experiment [6] (setting [11]) is > 64 µM.

With `CCCCc1ccc(-c2nc(C)c(C(=O)NC[C@H](O)CO)s2)cc1` [Compound R9, (S)-2-(4-butylphenyl)-N-(2,3-dihydroxypropyl)-4-methylthiazole-5-carboxamide], in experiment [4] (setting [12]), the MIC is 128 µM.

With `CCCCc1ccc(-c2nc(C)c(C(=O)NNC(=N)N)s2)cc1` [Compound R5, 2-(2-(4-butylphenyl)-4-methylthiazole-5-carbonyl)hydrazinecarboximidamide], the MIC in experiment [6] (setting [11]) was > 64 µM.

Take `CC(=O)c1sc(-c2ccc(-c3ccc(-c4ccccc4)cc3)cc2)nc1C` [Compound M23, 1-(2-([1,1′:4′,1″-Terphenyl]-4-yl)-4-methylthiazol-5-yl)ethanone]: the MIC in experiment [6] (setting [13]) was > 128 µM.

Take `CC(=O)c1sc(-c2cc[nH]n2)nc1C` [Compound M22, 1-(4-Methyl-2-(1H-pyrazol-3-yl)thiazol-5-yl)ethanone]: the MIC in [6] (setting [13]) was > 128 µM.

Take `CC(=O)c1sc(-c2ccc(-c3cc(C)cc(C)c3)cc2)nc1C` [Compound M7, 1-(2-(3′,5′-dimethyl-[1,1′-biphenyl]-4-yl)-4-methylthiazol-5-yl)ethanone]: the MIC in [6] (setting [13]) is > 128 µM.

With `C/C(=N\NC(=N)N)c1sc(-c2ccc(N)cc2)nc1C` [Compound M2, (E)-2-(1-(2-(4-aminophenyl)-4-methylthiazol-5-yl)ethylidene)hydrazinecarboximidamide], the MIC in experiment [6] (setting [13]) is > 128 µM; in [6] (setting [14]), 128 µM (≈ 36.9 µg/mL); in experiment [1] (setting [15]), 64 µM; in experiment [2] (setting [16]), 128 µM; in [7], 64 µM (≈ 18.5 µg/mL); in experiment [8] it was 64 µM (≈ 18.5 µg/mL). In addition, the MIC worked out at 64 µM (≈ 18.5 µg/mL) in [9]; 128 µM in experiment [3] (Table 8, NRS123, read-out: MIC); 128 µM (≈ 36.9 µg/mL) in experiment [10]; 128 µM in experiment [4] (Table 8, NRS384, read-out: MIC); 128 µM in experiment [5] (Table 8, NRS385, read-out: MIC). For the same compound, the MBC in experiment [6] (Table 8, ATCC 43300, read-out: MBC) was found to be 128 µM (≈ 36.9 µg/mL); in [1] (Table 8, NRS1 (VISA), read-out: MBC) it was 128 µM (≈ 36.9 µg/mL); in [2] (Table 8, NRS19 (VISA), read-out: MBC), 128 µM (≈ 36.9 µg/mL); in experiment [7] (read-out: MBC), 128 µM (≈ 36.9 µg/mL); in [8] (Table 8, read-out: MBC) it was 64 µM (≈ 18.5 µg/mL); in experiment [9] (read-out: MBC) it was 64 µM (≈ 18.5 µg/mL). The MBC in experiment [3] (Table 8, NRS123, read-out: MBC) was found to be 128 µM (≈ 36.9 µg/mL); in [10] (Table 8, read-out: MBC), 128 µM (≈ 36.9 µg/mL); in experiment [4] (Table 8, NRS384, read-out: MBC), 128 µM (≈ 36.9 µg/mL); in experiment [5] (Table 8, NRS385, read-out: MBC), 128 µM (≈ 36.9 µg/mL).

As for `CC(=O)c1sc(-c2cccc(F)c2)nc1C` [Compound M15, 1-(2-(3-fluorophenyl)-4-methylthiazol-5-yl)ethanone], the MIC in experiment [6] (20 h) was > 128 µM.

For the compound `CCCCc1ccc(-c2nc(C)c(C(=O)NCCN(C)C)s2)cc1` [Compound R10, 2-(4-butylphenyl)-N-(2-(dimethylamino)ethyl)-4-methylthiazole-5-carboxamide], in experiment [4] (setting [12]), the MIC worked out at 128 µM.

Consider `C/C(=N/NC(=N)N)c1sc(-c2cc[nH]n2)nc1C` [Compound M24, (Z)-2-(1-(4-methyl-2-(1H-pyrazol-3-yl)thiazol-5-yl)ethylidene)hydrazinecarboximidamide], for which the MIC in [6] (setting [13]) was > 128 µM.

As for `CCCCc1ccc(-c2nc(C)c(/C(N)=N\O)s2)cc1` [Compound R7, (E)-2-(4-butylphenyl)-N′-hydroxy-4-methylthiazole-5-carboximidamide], the MIC in experiment [6] (setting [14]), in [1] (setting [15]), in experiment [2] (setting [16]), in experiment [7], in [8] and in [9] was > 128 µM in each case. Further, the MIC in experiment [3] (Table 8, NRS123, read-out: MIC) was > 128 µM; in experiment [10], > 128 µM; in [4] (setting [12]) it was > 128 µM; in experiment [4] (Table 8, NRS384, read-out: MIC), > 128 µM; in experiment [5] (Table 8, NRS385, read-out: MIC), > 128 µM.
